# Experimental data as given in patent US10905676B2, “Angiotensin II receptor antagonist for the prevention or treatment of systemic diseases in cats” (priority 2017, dated 2021).
# Key:
# [1] = Pharmacokinetics and absolute bioavailability after single oral or intravenous administration (Example 1)
# Protocol: Four clinically healthy male and female domestic short hair cats (HsdCpb: CADS) with a body weight range of 2.6-4.2 kg were used in this study. The animals were randomly allocated to 2 groups, 2 animals per group.
# Blood samples were drawn at 0 h (i.e. prior to treatment), 5 (after i. v. injection only), 15, 30 and 60 min as well as 2, 4, 8, 24, 72 and 96 h after each treatment. Clinical observations were also conducted at these time points. Plasma samples were sent to the analytical laboratory and analysed there using a validated method. The plasma levels measured in each animal were subjected to various pharmacokinetic calculations.
# [2] = system: cats with systemic hypertension; assay: Six-month extended-use study in cats with systemic hypertension (Example 5); format: in vivo; conditions: for Group mSBP, Mean: baseline 176
# Protocol: The primary variables for assessment in this extensive use study were adverse events and change from baseline in retinal photographs. […] No placebo group was used in this study. […] The maintenance dose was down-titrated if the mSBP was below the target range of 120-160 mmHg at any visit. In those cases, the dose was reduced to 1 mg/kg and further reduced to 0.5 mg/kg SID if mSBP remained below the target range. […] All parameters were evaluated by the Investigator for clinical significance. The parameters were then compared to baseline, and changes were summarized by treatment group as well as by subpopulation, if appropriate.
# [3] = human patients, 160 mg daily (80 mg twice daily); cited from earlier work
# [4] = cats, single i.v. 1 mg/kg, mean, 1 mg/kg
# [5] = cats, single oral 1 mg/kg, mean, 1 mg/kg
compound,measurement,setting,value
"CCCc1nc2c(C)cc(-c3nc4ccccc4n3C)cc2n1Cc1ccc(-c2ccccc2C(=O)O)cc1 [telmisartan, 4′-[2-n-propyl-4-methyl-6-(1-methylbenzimidazol-2-yl)-benzimidazol-1-ylmethyl]-biphenyl-2-carboxylic acid]",time until which mean plasma concentrations increased,[1]; after oral administration,15 to 30 min
same,plasma concentrations at 24 h,"[1]; both routes, orally and intravenously",No quantifiable plasma concentrations
same,clearance,"[1]; both, domestic short hair (HsdCpb: CADS), plasma, iv, 1 mg/kg",45.5 mL/min/kg
same,V,"[1]; cats, single i.v. 1 mg/kg, mean",8.856 L/kg
same,AUC 0 → ∞,[1]; [4],384.751 ng·h/mL
same,t½,[1]; [4],2.252 h
same,V/f,"[1]; cats, single oral 1 mg/kg, mean",20.453 L/kg
same,AUC 0 → ∞,[1]; [5],150.426 ng·h/mL
same,t max,[1]; [5],0.438 h
same,t½,[1]; [5],2.169 h
same,clinical signs,[1]; entire course of the study,No specific clinical signs
same,tolerability,"[1]; in vivo, 1 mg/kg",well tolerated
same,"rescue cases (removed due to mSBP >180 mmHg), share of end of study outcomes",[2]; 8/107 cats,7.5%
same,SAEs determined to be possibly attributable to telmisartan,[2]; 11 SAEs,10.3%
same,cats with Serious AEs (SAEs),"[2]; 24 cats of 107, six-month study",22.4%
same,cats with Non-serious AEs (NSAEs),"[2]; 91 cats of 107, six-month study",85.0%
same,cases with SBP maintained within the target range (120-180 mmHg),[2]; 97/107 cats,90.7%
same,"cats scored as ""better"" in the IRIS blood pressure sub-staging",[2]; CKD and CKD and hyperthyroid subpopulations,83.0% to 98.1
same,Mean SBP of Cat 329-454,"[2]; Visit 2 (Week 2), after 3.0 (1.5 BID) mg/kg daily",108.3 mmHg
same,Mean SBP of Cat 329-454,"[2]; Visit 3 (Week 4), after 1.0 mg/kg SID",116.0 mmHg
same,Mean SBP of Cat 329-454,"[2]; Visit 4 (Week 8), after 0.5 mg/kg SID",157.7 mmHg
same,Mean SBP of Cat 329-454,"[2]; Visit 5 (Week 14), after 2.0 mg/kg SID",100.0 mmHg
same,Mean SBP of Cat 329-454,"[2]; Visit 6 (Week 20), after 1.0 mg/kg SID",125.3 mmHg
same,Mean SBP of Cat 329-454,"[2]; Visit 7 (Week 26), after 2.0 mg/kg SID",126.0 mmHg
same,"Group mSBP, Median",[2]; Week 4 (n = 107),149 mmHg
same,Maximum mSBP,[2]; Week 4 (n = 107),179 mmHg
same,Maximum mSBP Change from baseline,[2]; Week 4 (n = 107),14 ΔmmHg
same,Mean mSBP Change from baseline,[2]; Week 4 (n = 107),−29 ΔmmHg
same,Median mSBP Change from baseline,[2]; Week 4 (n = 107),−26 ΔmmHg
same,Minimum mSBP,[2]; Week 4 (n = 107),95 mmHg
same,Minimum mSBP Change from baseline,[2]; Week 4 (n = 107),−76 ΔmmHg
same,"Group mSBP, Mean",[2]; Week 4 (n = 107),148 mmHg
same,"Group mSBP, Median",[2]; Week 8 (n = 102),148 mmHg
same,Maximum mSBP Change from baseline,[2]; Week 8 (n = 102),7 ΔmmHg
same,Mean mSBP Change from baseline,[2]; Week 8 (n = 102),−28 ΔmmHg
same,Median mSBP Change from baseline,[2]; Week 8 (n = 102),−28 ΔmmHg
same,Minimum mSBP,[2]; Week 8 (n = 102),105 mmHg
same,Minimum mSBP Change from baseline,[2]; Week 8 (n = 102),−79 ΔmmHg
same,"Group mSBP, Mean",[2]; Week 8 (n = 102),148 mmHg
same,"Group mSBP, Median",[2]; Week 14 (n = 92),144 mmHg
same,Maximum mSBP Change from baseline,[2]; Week 14 (n = 92),25 ΔmmHg
same,Mean mSBP Change from baseline,[2]; Week 14 (n = 92),−33 ΔmmHg
same,Median mSBP Change from baseline,[2]; Week 14 (n = 92),−32 ΔmmHg
same,Minimum mSBP,[2]; Week 14 (n = 92),77 mmHg
same,Minimum mSBP Change from baseline,[2]; Week 14 (n = 92),−115 ΔmmHg
same,"Group mSBP, Mean",[2]; Week 14 (n = 92),142 mmHg
same,"Group mSBP, Median",[2]; Week 20 (n = 81),148 mmHg
same,Maximum mSBP Change from baseline,[2]; Week 20 (n = 81),16 ΔmmHg
same,Mean mSBP Change from baseline,[2]; Week 20 (n = 81),−30 ΔmmHg
same,Median mSBP Change from baseline,[2]; Week 20 (n = 81),−28 ΔmmHg
same,Minimum mSBP,[2]; Week 20 (n = 81),89 mmHg
same,Minimum mSBP Change from baseline,[2]; Week 20 (n = 81),−91 ΔmmHg
same,"Group mSBP, Mean",[2]; Week 20 (n = 81),145 mmHg
same,"Group mSBP, Median",[2]; Week 26 (n = 73),147 mmHg
same,Maximum mSBP Change from baseline,[2]; Week 26 (n = 73),30 ΔmmHg
same,Mean mSBP Change from baseline,[2]; Week 26 (n = 73),−25 ΔmmHg
same,Median mSBP Change from baseline,[2]; Week 26 (n = 73),−28 ΔmmHg
same,Minimum mSBP,[2]; Week 26 (n = 73),104 mmHg
same,Minimum mSBP Change from baseline,[2]; Week 26 (n = 73),−69 ΔmmHg
same,"Group mSBP, Mean",[2]; Week 26 (n = 73),150 mmHg
same,cats with retinal photographs improved compared to baseline,[2]; at all subsequent visits,6.9% to 7.4
same,mean change in SBP from baseline (reduction),"[2]; each visit, Examples 4 and 5, FIG. 2",greater than 20 mmHg
same,SAE anemia and dehydration,[2]; six-month study,6.5%
same,"SAE anorexia, vomiting",[2]; six-month study,5.6%
same,SAE weight loss,[2]; six-month study,8.4%
same,cases rescued due to hypotension,[2]; two cats,1.9%
same,plasma level (Cmax±SD),[3],about 2800±2400 ng/ml
